{
  "source": "ChEMBL document CHEMBL1122789",
  "about": "“Synthesis and biological activity of structural analogues of the anticancer benzophenanthridine alkaloid nitidine chloride” (1984)",
  "key": {"B16 [1]": {"test_system": "B16", "assay": "Evaluated for anticancer activity in survival tumor system B16 melanocarcinoma at a dose of 100 mg/kg, value was reported as weight difference", "type": "functional, Mus musculus"}, "[2]": {"test_system": "Lewis lung carcinoma cell line", "assay": "Evaluated for anticancer activity in survival tumor system Lewis lung (LL) carcinoma at a dose of 50 mg/kg;Number of Tested survived/number of control survived (10/10)", "type": "functional, Mus musculus"}, "[3]": {"test_system": "Lewis lung carcinoma cell line", "assay": "Evaluated for anticancer activity in survival tumor system Lewis lung (LL) carcinoma at dose 100 mg/kg", "type": "functional, Mus musculus"}, "[4]": {"test_system": "Lewis lung carcinoma cell line", "assay": "Evaluated for anticancer activity in survival tumor system tumor system Lewis lung (LL) carcinoma at a dose of 100 mg/kg; Number of Tested survived/number of control survived (10/10)", "type": "functional, Mus musculus"}, "L1210 [5]": {"test_system": "L1210", "assay": "Evaluated for anticancer activity in survival tumor system L1210 lymphoid leukemia at dose 3.12 mg/kg", "type": "functional, Mus musculus"}, "P388 [6]": {"test_system": "P388", "assay": "Evaluated for anticancer activity in survival tumor system P388 lymphocytic leukemia at a dose of 12.5 mg/kg, value was reported as weight difference", "type": "functional, Mus musculus"}, "P388 [7]": {"test_system": "P388", "assay": "Evaluated for anticancer activity in survival tumor system P388 lymphocytic leukemia at a dose of 25 mg/kg;Number of Tested survived/number of control survived (5/6)", "type": "functional, Mus musculus"}, "P388 [8]": {"test_system": "P388", "assay": "Evaluated for anticancer activity in survival tumor system P388 lymphocytic leukemia at a dose of 200 mg/kg; Number of Tested survived/number of control survived (0/6)", "type": "functional, Mus musculus"}, "[9]": {"assay": "Evaluated for anticancer activity in tumor inhibition system CD8F1 mammary tumors at a dose of 250 mg/kg; number of Tested survived/number of control survived", "type": "functional, Mus musculus"}, "[10]": {"assay": "Evaluated for anticancer activity in tumor inhibition system CD8F mammary tumor at a dose of 62 mg/kg, value was reported as weight difference", "type": "functional, Mus musculus"}, "[11]": {"assay": "Evaluated for anticancer activity in tumor inhibition system colon 38 tumors at a dose of 400 mg/kg; Number of Tested survived/number of control survived (10/10)", "type": "functional, Mus musculus"}, "L1210 [12]": {"test_system": "L1210", "assay": "Evaluated for anticancer activity in survival tumor system L1210 lymphoid leukemia at a dose of 12.5 mg/kg, value was reported as weight difference", "type": "functional, Mus musculus"}, "[13]": {"test_system": "Lewis lung carcinoma cell line", "assay": "Evaluated for anticancer activity in survival tumor system Lewis lung (LL) carcinoma at a dose of 50 mg/kg, value was reported as weight difference", "type": "functional, Mus musculus"}, "[14]": {"assay": "Evaluated for anticancer activity in tumor inhibition system CD8F1 mammary tumors at a dose of 500 mg/kg; Number of Tested survived/number of control survived (0/10)", "type": "functional, Mus musculus"}, "L1210 [15]": {"test_system": "L1210", "assay": "Evaluated for anticancer activity in survival tumor system L1210 lymphoid leukemia at a dose of 100 mg/kg, value was reported as weight difference", "type": "functional, Mus musculus"}, "B16 [16]": {"test_system": "B16", "assay": "Evaluated for anticancer activity in survival tumor system B16 melanocarcinoma at dose 50 mg/kg", "type": "functional, Mus musculus"}, "[17]": {"assay": "Evaluated for anticancer activity in tumor inhibition system colon 38 at a dose of 200 mg/kg, value was reported as weight difference", "type": "functional, Mus musculus"}, "[18]": {"test_system": "Lewis lung carcinoma cell line", "assay": "Evaluated for anticancer activity in survival tumor system Lewis lung (LL) carcinoma at a dose of 25 mg/kg, value was reported as weight difference", "type": "functional, Mus musculus"}, "MX1 [19]": {"test_system": "MX1", "assay": "Evaluated for anticancer activity in tumor inhibition system MX-1 breast xenograph at a dose of 150 mg/kg; Number of Tested survived/number of control survived (5/6)", "conditions": "Homo sapiens"}, "P388 [20]": {"test_system": "P388", "assay": "Evaluated for anticancer activity in survival tumor system P388 lymphocytic leukemia at a dose of 25 mg/kg, value was reported as weight difference", "type": "functional, Mus musculus"}, "MX1 [21]": {"test_system": "MX1", "assay": "Evaluated for anticancer activity in tumor inhibition system MX-1 breast xenograph at dose 150 mg/kg", "type": "functional, Homo sapiens"}, "[22]": {"test_system": "Lewis lung carcinoma cell line", "assay": "Evaluated for anticancer activity in survival tumor system Lewis lung (LL) carcinoma at a dose of 12.5 mg/kg; Number of Tested survived/number of control survived (10/10)", "type": "functional, Mus musculus"}, "L1210 [23]": {"test_system": "L1210", "assay": "Evaluated for anticancer activity in survival tumor system L1210 lymphoid leukemia at a dose of 100 mg/kg; Number of Tested survived/number of control survived (6/6)", "type": "functional, Mus musculus"}, "[24]": {"test_system": "Lewis lung carcinoma cell line", "assay": "Evaluated for anticancer activity in survival tumor system Lewis lung (LL) carcinoma at dose 12.5 mg/kg", "type": "functional, Mus musculus"}, "P388 [25]": {"test_system": "P388", "assay": "Evaluated for anticancer activity in survival tumor system P388 lymphocytic leukemia at dose 12.5 mg/kg", "type": "functional, Mus musculus"}, "[26]": {"assay": "Evaluated for anticancer activity in tumor inhibition system colon 38 at a dose of 50 mg/kg, value was reported as weight difference", "type": "functional, Mus musculus"}, "[27]": {"assay": "Evaluated for anticancer activity in tumor inhibition system colon 38 tumor at dose 400 mg/kg", "type": "functional, Mus musculus"}, "[28]": {"assay": "Evaluated for anticancer activity in tumor inhibition system CD8F1 mammary tumors at a dose of 125 mg/kg; Number of Tested survived/number of control survived (10/10)", "type": "functional, Mus musculus"}, "[29]": {"assay": "Evaluated for anticancer activity in tumor inhibition system colon 38 tumors at a dose of 200 mg/kg; Number of Tested survived/number of control survived (10/10)", "type": "functional, Mus musculus"}, "[30]": {"assay": "Evaluated for anticancer activity in tumor inhibition system colon 38 tumors at a dose of 50 mg/kg; Number of Tested survived/number of control survived (10/10)", "type": "functional, Mus musculus"}, "B16 [31]": {"test_system": "B16", "assay": "Evaluated for anticancer activity in survival tumor system B16 melanocarcinoma at a dose of 12.5 mg/kg, value was reported as weight difference", "type": "functional, Mus musculus"}, "L1210 [32]": {"test_system": "L1210", "assay": "Evaluated for anticancer activity in survival tumor system L1210 lymphoid leukemia at a dose of 50 mg/kg; Number of Tested survived/number of control survived (6/6)", "type": "functional, Mus musculus"}, "MX1 [33]": {"test_system": "MX1", "assay": "Evaluated for anticancer activity in tumor inhibition system MX-1 breast xenograph at a dose of 150mg/kg, value was reported as weight difference", "type": "functional, Homo sapiens"}, "[34]": {"assay": "Evaluated for anticancer activity in tumor inhibition system CD8F1 mammary tumors at a dose of mg/kg;Number of Tested survived/number of control survived (10/10)", "type": "functional, Mus musculus"}, "[35]": {"assay": "Evaluated for anticancer activity in tumor inhibition system colon 38 tumors at a dose of 800 mg/kg; Number of Tested survived/number of control survived (0/10)", "type": "functional, Mus musculus"}, "B16 [36]": {"test_system": "B16", "assay": "Evaluated for anticancer activity in survival tumor system B16 melanocarcinoma at a dose of 50 mg/kg, value was reported as weight difference", "type": "functional, Mus musculus"}, "[37]": {"assay": "Evaluated for anticancer activity in tumor inhibition system CD8F1 mammary tumor at dose 125 mg/kg", "type": "functional, Mus musculus"}, "[38]": {"assay": "Evaluated for anticancer activity in tumor inhibition system CD8F1 mammary tumor at dose 62 mg/kg", "type": "functional, Mus musculus"}, "L1210 [39]": {"test_system": "L1210", "assay": "Evaluated for anticancer activity in survival tumor system L1210 lymphoid leukemia at dose 100 mg/kg", "type": "functional, Mus musculus"}, "[40]": {"test_system": "Lewis lung carcinoma cell line", "assay": "Evaluated for anticancer activity in survival tumor system Lewis lung (LL) carcinoma at a dose of 12.5 mg/kg, value was reported as weight difference", "type": "functional, Mus musculus"}, "B16 [41]": {"test_system": "B16", "assay": "Evaluated for anticancer activity in survival tumor system B16 melanocarcinoma at a dose of 6.25 mg/kg; Number of Tested survived/number of control survived (10/10)", "type": "functional, Mus musculus"}, "L1210 [42]": {"test_system": "L1210", "assay": "Evaluated for anticancer activity in survival tumor system L1210 lymphoid leukemia at a dose of 6.25 mg/kg; Number of Tested survived/number of control survived (6/6)", "type": "functional, Mus musculus"}},
  "data": [
    {"smiles": "COc1cc2c[n+](C)c3c(c2cc1OC)Cc1cc2c(cc1-3)OCO2.[Cl-]", "values": [
      {"measurement": "Weight change", "setting": "B16 [1]", "value": -4.6},
      {"measurement": "Survival", "setting": "[2]", "value": 10},
      {"measurement": "T/C", "setting": "[3]", "value": 51, "unit": "%"},
      {"measurement": "Survival", "setting": "[4]", "value": 10},
      {"measurement": "T/C", "setting": "L1210 [5]", "value": 129, "unit": "%"},
      {"measurement": "Weight change", "setting": "P388 [6]", "value": -1.4},
      {"measurement": "Survival", "setting": "P388 [7]", "value": 5},
      {"measurement": "Survival", "setting": "P388 [8]", "value": 0},
      {"measurement": "Survival", "setting": "[9]", "value": 2},
      {"measurement": "Weight change", "setting": "[10]", "value": -1},
      {"measurement": "Survival", "setting": "[11]", "value": 10},
      {"measurement": "Weight change", "setting": "L1210 [12]", "value": -2.6},
      {"measurement": "Weight change", "setting": "[13]", "value": -2.6},
      {"measurement": "Survival", "setting": "[14]", "value": 0},
      {"measurement": "Weight change", "setting": "L1210 [15]", "value": -5.8},
      {"measurement": "T/C", "setting": "B16 [16]", "value": 147, "unit": "%"},
      {"measurement": "Weight change", "setting": "[17]", "value": -4.3},
      {"measurement": "Weight change", "setting": "[18]", "value": -2.4},
      {"measurement": "Survival", "setting": "MX1 [19]", "value": 5},
      {"measurement": "Weight change", "setting": "P388 [20]", "value": -3.6},
      {"measurement": "T/C", "setting": "MX1 [21]", "value": 35, "unit": "%"},
      {"measurement": "Survival", "setting": "[22]", "value": 10},
      {"measurement": "Survival", "setting": "L1210 [23]", "value": 6},
      {"measurement": "T/C", "setting": "[24]", "value": 97, "unit": "%"},
      {"measurement": "T/C", "setting": "P388 [25]", "value": 134, "unit": "%"},
      {"measurement": "Weight change", "setting": "[26]", "value": -0.8},
      {"measurement": "T/C", "setting": "[27]", "value": 85, "unit": "%"},
      {"measurement": "Survival", "setting": "[28]", "value": 10},
      {"measurement": "Survival", "setting": "[29]", "value": 10},
      {"measurement": "Survival", "setting": "[30]", "value": 10},
      {"measurement": "Weight change", "setting": "B16 [31]", "value": -1},
      {"measurement": "Survival", "setting": "L1210 [32]", "value": 6},
      {"measurement": "Weight change", "setting": "MX1 [33]", "value": -6},
      {"measurement": "Survival", "setting": "[34]", "value": 10},
      {"measurement": "Survival", "setting": "[35]", "value": 0},
      {"measurement": "Weight change", "setting": "B16 [36]", "value": -4.9},
      {"measurement": "T/C", "setting": "[37]", "value": 105, "unit": "%"},
      {"measurement": "T/C", "setting": "[38]", "value": 92, "unit": "%"},
      {"measurement": "T/C", "setting": "L1210 [39]", "value": 95, "unit": "%"},
      {"measurement": "Weight change", "setting": "[40]", "value": -0.9},
      {"measurement": "Survival", "setting": "B16 [41]", "value": 10},
      {"measurement": "Survival", "setting": "L1210 [42]", "value": 6}
    ]}
  ]
}
